Series [1] relates to HeLa. The series is described as follows: Cytotoxicity against human HeLa cells assessed as reduction in cell viability incubated for 24 hrs by CCK-8 assay. It counts as functional, cell-based.
The test system of series [2] is T-24. The series is described as follows: Cytotoxicity against human T24 cells assessed as reduction in cell viability incubated for 24 hrs by CCK-8 assay. In kind it is functional, cell-based. Particulars: T-24, 24 h. On the technique in general: Tetrazolium dyes change colour on reduction, which living cells bring about.
Series [3] deals with HeLa. The series is described as follows: Induction of ROS generation in human HeLa cells assessed as increase in ROS level incubated for 1 to 36 hrs by DCFH-DA staining based confocal imaging analysis. In kind it is functional, cell-based. The settings on record: time 1-36 hrs.
Series [4] has as its system HeLa. The series can be described thus: Induction of ROS generation in human HeLa cells assessed as increase in ROS level incubated for 48 hrs by DCFH-DA staining based confocal imaging analysis. In kind it is functional, cell-based.
The test system of series [5] is HeLa. The series can be described thus: Induction of apoptosis in human HeLa cells assessed as viable cells at 6.8 uM incubated for 48 hrs by Annexin V-Alexa fluor 647 and propidium iodide staining based flow cytometry relative to control. It counts as functional. Particulars: read-out: Activity.
Series [6] deals with HeLa. The series can be described thus: Induction of apoptosis in human HeLa cells assessed as early apoptotic cells at 6.8 uM incubated for 48 hrs by Annexin V-Alexa fluor 647 and propidium iodide staining based flow cytometry relative to control. It counts as functional. In general terms: Flow cytometry measures light scatter and fluorescence of single cells or particles in a stream.

Series [7] has as its system HeLa. The series is described as follows: Induction of apoptosis in human HeLa cells assessed as late apoptotic cells at 6.8 uM incubated for 48 hrs by Annexin V-Alexa fluor 647 and propidium iodide staining based flow cytometry relative to control. It counts as functional.
In series [8] the test system is HeLa. The series is described as follows: Induction of apoptosis in human HeLa cells assessed as necrotic cells at 6.8 uM incubated for 48 hrs by Annexin V-Alexa fluor 647 and propidium iodide staining based flow cytometry relative to control. It counts as functional.
Series [9] has as its system HeLa. The series can be described thus: Induction of apoptosis in human HeLa cells assessed as viable cells at 13.6 uM incubated for 48 hrs by Annexin V-Alexa fluor 647 and propidium iodide staining based flow cytometry relative to control. It counts as functional. The settings on record: read-out: Activity.
For series [10], the system named is HeLa. The series is described as follows: Induction of apoptosis in human HeLa cells assessed as early apoptotic cells at 13.6 uM incubated for 48 hrs by Annexin V-Alexa fluor 647 and propidium iodide staining based flow cytometry relative to control. In kind it is functional.
The test system of series [11] is HeLa. The series can be described thus: Induction of apoptosis in human HeLa cells assessed as late apoptotic cells at 13.6 uM incubated for 48 hrs by Annexin V-Alexa fluor 647 and propidium iodide staining based flow cytometry relative to control. In kind it is functional.
Series [12] has as its system HeLa. The series can be described thus: Induction of apoptosis in human HeLa cells assessed as necrotic cells at 13.6 uM incubated for 48 hrs by Annexin V-Alexa fluor 647 and propidium iodide staining based flow cytometry relative to control. In kind it is functional.
Series [13] concerns HeLa. The series can be described thus: Induction of apoptosis in human HeLa cells assessed as viable cells at 27.2 uM incubated for 48 hrs by Annexin V-Alexa fluor 647 and propidium iodide staining based flow cytometry relative to control. In kind it is functional. Particulars: read-out: Activity.
For series [14], the system named is HeLa. The series is described as follows: Induction of apoptosis in human HeLa cells assessed as early apoptotic cells at 27.2 uM incubated for 48 hrs by Annexin V-Alexa fluor 647 and propidium iodide staining based flow cytometry relative to control. It counts as functional.
Series [15] concerns HeLa. The series is described as follows: Induction of apoptosis in human HeLa cells assessed as late apoptotic cells at 27.2 uM incubated for 48 hrs by Annexin V-Alexa fluor 647 and propidium iodide staining based flow cytometry relative to control. In kind it is functional.
Series [16] concerns HeLa. The series is described as follows: Induction of apoptosis in human HeLa cells assessed as necrotic cells at 27.2 uM incubated for 48 hrs by Annexin V-Alexa fluor 647 and propidium iodide staining based flow cytometry relative to control. It counts as functional.
In series [17] the test system is HeLa. The series can be described thus: Induction of autophagy in human HeLa cells assessed as change in caspase 1 activity at 5.44 uM incubated for 48 hrs by MDC staining based flow cytometric analysis (reference value: 0.06). It counts as functional.
The test system of series [18] is HeLa. The series can be described thus: Induction of autophagy in human HeLa cells assessed as change in caspase 1 activity at 10.88 uM incubated for 48 hrs by MDC staining based flow cytometric analysis (reference value: 0.06). It counts as functional.
Series [19] deals with HeLa. The series is described as follows: Induction of autophagy in human HeLa cells assessed as change in caspase 1 activity at 21.76 uM incubated for 48 hrs by MDC staining based flow cytometric analysis (reference value: 0.06). In kind it is functional.
Series [20] concerns HeLa. The series is described as follows: Induction of autophagy in human HeLa cells assessed as change in caspase 1 activity at 43.52 uM incubated for 48 hrs by MDC staining based flow cytometric analysis (reference value: 0.06. It counts as functional.
In series [21] the test system is HeLa. The series can be described thus: Induction of autophagy in human HeLa cells assessed as change in caspase 1 activity at 87.04 uM incubated for 48 hrs by MDC staining based flow cytometric analysis (reference value: 0.06). It counts as functional.
The test system of series [22] is HeLa. The series can be described thus: Induction of autophagy in human HeLa cells assessed as change in caspase 4 activity at 5.44 uM incubated for 48 hrs at wavelength of 405 nm by MDC staining based flow cytometric analysis (reference value: 0.052). It counts as functional.
For series [23], the system named is HeLa. The series can be described thus: Induction of autophagy in human HeLa cells assessed as change in caspase 4 activity at 10.88 uM incubated for 48 hrs at wavelength of 405 nm by MDC staining based flow cytometric analysis (reference value: 0.052). In kind it is functional.
The test system of series [24] is HeLa. The series can be described thus: Induction of autophagy in human HeLa cells assessed as change in caspase 4 activity at 21.76 uM incubated for 48 hrs at wavelength of 405 nm by MDC staining based flow cytometric analysis (reference value: 0.052). It counts as functional.
The test system of series [25] is HeLa. The series is described as follows: Induction of autophagy in human HeLa cells assessed as change in caspase 4 activity at 43.52 uM incubated for 48 hrs at wavelength of 405 nm by MDC staining based flow cytometric analysis (reference value: 0.052). In kind it is functional.
Series [26] concerns HeLa. The series can be described thus: Induction of autophagy in human HeLa cells assessed as change in caspase 4 activity at 87.04 uM incubated for 48 hrs at wavelength of 405 nm by MDC staining based flow cytometric analysis (reference value: 0.052). It counts as functional.
For series [27], the system named is HeLa. The series is described as follows: Induction of pyroptosis in human HeLa cells at 10.88 to 43.52 uM. In kind it is functional, cell-based. The settings on record: dose 10.88-43.52 µM.
A short description of series [28]: Reactivity of compound assessed as consumption of H2O2 by measuring phenol intermediate formation after 1 hr relative to control. In kind it is physicochemical.

As a reminder, the IC50 is the point on the concentration scale where inhibition reaches its midpoint.

The source made the active and inactive calls. The calls are words filed in the database; no cut-off is given here.

As to `CC1(C)OB(c2ccc(F)c(CCc3cc(B4OC(C)(C)C(C)(C)O4)ccc3F)c2)OC1(C)C`, the IC50 is 0.68 µM in [1] and 1.14 µM in series [2]. Moreover, the result in series [3] was inactive. Further, the result in series [4] and in series [27] was Active. The viability at 6.8 µM in series [5] came out at 96.1%. The Activity in series [6] amounted to 1.43%; in [7] it was 0.073%; in [8], 0.38%; in [10], 2.44%; in series [11], 0.41%; in series [12], 1.54%. The Activity is 4.28% in [14], 0.63% in series [15] and 1.41% in [16]. Also, the viability at 13.6 µM in series [9] is 95.6%. In [13], the viability at 27.2 µM was 93.7%. The OD is given as 0.058 in series [17]; 0.062 in series [18]; 0.06 in series [19]; 0.061 in series [20]; 0.062 in [21]; 0.052 in series [22]. Also, the OD in [23] came out at 0.053; in series [24], 0.051; in [25], 0.051; in [26] it was 0.051.
Regarding `CC1(C)OB(c2cc(C(=O)Oc3ccc4c(c3)OCO4)cc(-c3cc(B4OC(C)(C)C(C)(C)O4)cc(C(=O)Oc4ccc5c(c4)OCO5)c3)c2)OC1(C)C`, the IC50 in series [1] worked out at 1 µM.
Take `CC1(C)OB(c2cc(F)ccc2CCc2ccc(F)cc2B2OC(C)(C)C(C)(C)O2)OC1(C)C`: in [1], the IC50 worked out at 1.8 µM.
Still for that read-out and setting: the result for `CC1(C)OB(c2cc(C(=O)Oc3ccc(-c4ccccc4)cc3)cc(-c3cc(B4OC(C)(C)C(C)(C)O4)cc(C(=O)Oc4ccc(-c5ccccc5)cc4)c3)c2)OC1(C)C` reads 0.7 µM; that for `CC1(C)OB(c2ccc(Cc3ccc(B4OC(C)(C)C(C)(C)O4)cc3)cc2)OC1(C)C`, 3.15 µM.
With `COc1ccc(-c2ccc(OC)c(B3OC(C)(C)C(C)(C)O3)c2)cc1B1OC(C)(C)C(C)(C)O1`, the 50% inhibitory concentration (IC50) in [1] was 0.83 µM.
On to `CC1(C)OB(c2ccc(-c3ccc(B4OC(C)(C)C(C)(C)O4)cc3)cc2)OC1(C)C`, for which the IC50 in [1] was found to be 1.95 µM. Also, in [28], the Activity stood at 96%.
Consider `CC1(C)OB(c2cc(C(F)(F)F)ccc2CCc2ccc(C(F)(F)F)cc2B2OC(C)(C)C(C)(C)O2)OC1(C)C`, for which the IC50 in series [1] stood at 0.7 µM.
The same measure, in the same setting: as for `CC1(C)OB(c2cccc(CCc3cccc(B4OC(C)(C)C(C)(C)O4)c3F)c2F)OC1(C)C`, the figure is 11.8 µM.
For `CC1(C)COB(c2ccc(CCc3ccc(B4OCC(C)(C)CO4)cc3)cc2)OC1`, the IC50 in [1] was determined as 0.87 µM.
Same read-out and setting: as for `CC1(C)COB(c2cccc(CCc3cccc(B4OCC(C)(C)CO4)c3)c2)OC1`, the figure is 3.44 µM; as for `CC1(C)OB(c2ccc(CCc3ccc(B4OC(C)(C)C(C)(C)O4)c4ccccc34)c3ccccc23)OC1(C)C`, 3.44 µM; as for `CC(C)(C)c1cc(B2OC(C)(C)C(C)(C)O2)cc(-c2cc(B3OC(C)(C)C(C)(C)O3)cc(C(C)(C)C)c2)c1`, 0.9 µM.
With `CC1(C)OB(c2ccc(-c3ccc(B4OC(C)(C)C(C)(C)O4)c4ccccc34)c3ccccc23)OC1(C)C`, in series [1], the concentration for half-maximal inhibition (IC50) turned out to be 0.69 µM.
Still for that read-out and setting: as for `CCC1(CC)OB(c2ccc(Cc3ccc(B4OC(C)(C)C(C)(C)O4)cc3)cc2)OC1(CC)CC`, the figure is 2.11 µM.
As to `CC1(C)OB(c2ccc(-c3ccc(-c4ccc(-c5ccc(B6OC(C)(C)C(C)(C)O6)cc5)cc4)cc3)cc2)OC1(C)C`, the IC50 in [1] was 2.27 µM.
Take `CC1(C)OB(c2ccc(CCc3ccc(B4OC(C)(C)C(C)(C)O4)cc3)cc2)OC1(C)C`: the IC50 in [1] came to 0.71 µM.
Same read-out and setting: as for `Cc1cc(B2OC(C)(C)C(C)(C)O2)cc(-c2cc(C)cc(B3OC(C)(C)C(C)(C)O3)c2)c1`, the figure is 0.79 µM; as for `CC1(C)OB(c2ccc(-c3ccc(B4OC(C)(C)C(C)(C)O4)c(F)c3)cc2F)OC1(C)C`, 2.6 µM; as for `CC1(C)OB(c2ccc(Cc3ccc(B4OC(C)(C)C(C)(C)O4)c4ccccc34)cc2)OC1(C)C`, 0.63 µM.

For the origin of these results see ChEMBL document CHEMBL6115027, “Bisboronic Ester-Enabled Redox-Targeted Cancer Therapy: A Cascade ROS Consumption Approach for Efficient Elimination of Cancer Cells” (J Med Chem, 2025).
